Results published in patent US20090143279A1 (priority 2007, published 2009).
Where two headings read alike, the source gives them in different places.

Key:
nuOXPHOS transcripts = format: cell-based, mouse; details: for nucOX (composite Z-score): normalized score vs mock-treated (DMSO) wells
OXPHOS gene expression = format: cell-based, mouse; details: for GE-HTS (composite Z-score): normalized score vs mock-treated (DMSO) wells
reactive oxygen species = format: cell-based, mouse; details: for ROS (composite Z-score): normalized score vs mock-treated (DMSO) wells
[1] = test system: mitochondrial membrane potential; format: cell-based, mouse; details: for ΔΨm (composite Z-score): normalized score vs mock-treated (DMSO) wells
C2C12 myotubes = details: for Viability (composite Z-score): normalized score vs mock-treated (DMSO) wells
[2] = test system: cellular dehydrogenase activity; details: for MTT (composite Z-score): normalized score vs mock-treated (DMSO) wells
cytochrome c = format: cell-based, mouse; details: for cyt c (composite Z-score): normalized score vs mock-treated (DMSO) wells
Chain of cytochrome c (P62897 whole entry): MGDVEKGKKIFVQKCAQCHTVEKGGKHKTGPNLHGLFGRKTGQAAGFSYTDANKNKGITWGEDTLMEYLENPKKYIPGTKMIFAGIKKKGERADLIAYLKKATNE

mtOXPHOS transcripts = format: cell-based, mouse; details: for mitoOX (composite Z-score): normalized score vs mock-treated (DMSO) wells
[3] = normalized composite Z-score vs mock-treated (DMSO) wells, Conc 20 μM
[4] = Table 7, C2C12 myotubes, 48 h, composite Z-score
[5] = composite Z-score vs DMSO, Conc 20 μM
[6] = composite Z-score vs DMSO, Conc 20.38 μM
[7] = composite Z-score vs DMSO wells, Conc 20 μM
[8] = 20 μM, composite Z-score vs DMSO
[9] = composite Z-score vs mock-treated (DMSO) wells, Conc 20 μM
[10] = composite Z-score vs DMSO, Conc 20.18 μM

CC(C)(O)CC[C@@H](O)[C@](C)(O)[C@H]1CC[C@@]2(O)C3=CC(=O)[C@@H]4C[C@@H](O)[C@@H](O)C[C@]4(C)[C@H]3CC[C@]12C [crustecdysone]
nucOX (composite Z-score) (nuOXPHOS transcripts; Conc 20 μM): 0.487
GE-HTS (composite Z-score) (OXPHOS gene expression; Conc 20 μM): 0.354
ROS (composite Z-score) (reactive oxygen species; Conc 20 μM): 0.657
ΔΨm (composite Z-score) ([1]; Conc 20 μM): −0.721
Viability (composite Z-score) (C2C12 myotubes; Conc 20 μM): −0.458
MTT (composite Z-score) ([2]; Conc 20 μM): −0.545
cyt c (composite Z-score) (cytochrome c; Conc 20 μM): 0.468
mitoOX (composite Z-score) (mtOXPHOS transcripts; Conc 20 μM): 0.062

COc1cccc2c1CCC1CC(=O)CCC21C (stereo not shown)
nucOX (nuOXPHOS transcripts; [3]): −0.900
GE-HTS (OXPHOS gene expression; [3]): −0.872
ROS (reactive oxygen species; [3]): −0.109
ΔΨm [1, 3]: 1.124
Viability (C2C12 myotubes; [3]): −0.060
MTT [2, 3]: −1.068
cyt c (cytochrome c; [3]): 1.307
mitoOX (mtOXPHOS transcripts; [3]): −0.612

COc1ccc2c(c1)OC/C(=C\c1ccc(OC)c(O)c1)C2=O [sappanone A dimethyl ether]
nucOX (composite Z-score) (nuOXPHOS transcripts; Conc 20 μM): 0.495
GE-HTS (composite Z-score) (OXPHOS gene expression; Conc 20 μM): 0.450
ROS (composite Z-score) (reactive oxygen species; Conc 20 μM): −2.429
ΔΨm (composite Z-score) ([1]; Conc 20 μM): 0.017
Viability (composite Z-score) (C2C12 myotubes; Conc 20 μM): −1.045
MTT (composite Z-score) ([2]; Conc 20 μM): −1.865
cyt c (composite Z-score) (cytochrome c; Conc 20 μM): −0.664
mitoOX (composite Z-score) (mtOXPHOS transcripts; Conc 20 μM): 0.248

COc1cccc2c1C(=O)c1c(O)c3c(c(O)c1C2=O)C[C@@](O)(C(C)=O)C[C@@H]3O[C@H]1C[C@H](N)[C@H](O)[C@H](C)O1 [Daunorubicin, reference compound]
nucOX (nuOXPHOS transcripts): −2.094
nucOXPHOS Z (nuOXPHOS transcripts; [4]): −2.09
GE-HTS (OXPHOS gene expression): −1.008
ROS (reactive oxygen species): −2.398
ΔΨm [1]: −2.337
Viability (C2C12 myotubes): −3.547
MTT [2]: −5.009
cyt c (cytochrome c): −3.722
mitoOX (mtOXPHOS transcripts): 1.373
mito-OXPHOS Z (mtOXPHOS transcripts; [4]): 1.37

C#CCCCCCCCCCCCC(O)CC(O)CO (stereo not shown) [avocadyne]
nucOX (nuOXPHOS transcripts; [5]): −1.019
nucOX (nuOXPHOS transcripts; [3]): 0.457
GE-HTS (OXPHOS gene expression; [5]): −1.062
GE-HTS (OXPHOS gene expression; [3]): 0.405
ROS (reactive oxygen species; [5]): 0.611
ROS (reactive oxygen species; [3]): 0.322
ΔΨm [1, 5]: −0.029
ΔΨm [1, 3]: −0.266
Viability (C2C12 myotubes; [5]): −0.546
Viability (C2C12 myotubes; [3]): 0.816
MTT [2, 5]: −0.646
MTT [2, 3]: −0.369
cyt c (cytochrome c; [5]): −0.049
cyt c (cytochrome c; [3]): 0.738
mitoOX (mtOXPHOS transcripts; [5]): −0.897
mitoOX (mtOXPHOS transcripts; [3]): 0.242

CC(=O)O[C@]1(C)CC[C@@]23C[C@@H]1C(C)(C)[C@@H]2CC[C@H]3C [cedryl acetate]
nucOX (nuOXPHOS transcripts; [3]): 0.184
GE-HTS (OXPHOS gene expression; [3]): 0.067
ROS (reactive oxygen species; [3]): 1.566
ΔΨm [1, 3]: −0.042
Viability (C2C12 myotubes; [3]): −0.311
MTT [2, 3]: −0.176
cyt c (cytochrome c; [3]): 0.388
mitoOX (mtOXPHOS transcripts; [3]): −0.149

C[C@@]12C(=O)OC(=O)[C@]1(C)[C@H]1CC[C@@H]2O1 [cantharidin]
nucOX (nuOXPHOS transcripts; [5]): 0.477
nucOX (nuOXPHOS transcripts; [6]): 0.144
GE-HTS (OXPHOS gene expression; [5]): 1.196
GE-HTS (OXPHOS gene expression; [6]): 0.217
ROS (reactive oxygen species; [5]): −2.764
ROS (reactive oxygen species; [6]): −2.786
ΔΨm [1, 5]: −2.513
ΔΨm [1, 6]: −2.722
Viability (C2C12 myotubes; [5]): −4.063
Viability (C2C12 myotubes; [6]): −4.714
MTT [2, 5]: −5.729
MTT [2, 6]: −5.122
cyt c (cytochrome c; [5]): −5.284
cyt c (cytochrome c; [6]): −5.104
mitoOX (mtOXPHOS transcripts; [5]): 2.498
mitoOX (mtOXPHOS transcripts; [6]): 0.310

CC[N+]1(C)CCCC(OC(=O)C(O)(c2ccccc2)c2ccccc2)C1 (stereo not shown) [pipenzolate]
nucOX (nuOXPHOS transcripts; [7]): −0.411
GE-HTS (OXPHOS gene expression; [7]): −0.495
ROS (reactive oxygen species; [7]): 0.166
ΔΨm [1, 7]: −0.205
Viability (C2C12 myotubes; [7]): 0.001
MTT [2, 7]: 0.060
cyt c (cytochrome c): 0.192
cyt c (cytochrome c; [7]): −0.954
mitoOX (mtOXPHOS transcripts; [7]): −0.569

CCN(CC)Cc1cc(Nc2ccnc3cc(Cl)ccc23)ccc1O [amodiaquine]
nucOX (nuOXPHOS transcripts; [8]): 0.317
GE-HTS (OXPHOS gene expression; [8]): 0.398
ROS (reactive oxygen species; [8]): 0.877
ΔΨm [1, 8]: −1.178
Viability (C2C12 myotubes; [8]): −0.547
MTT [2, 8]: −1.008
cyt c (cytochrome c; [8]): −0.008
mitoOX (mtOXPHOS transcripts; [8]): 0.481

COc1cc(-c2coc3cc(OC)c(OC)c(OC)c3c2=O)cc(OC)c1OC [irigenin trimethyl ether]
nucOX (nuOXPHOS transcripts; [9]): −0.790
GE-HTS (OXPHOS gene expression; [9]): −0.792
ROS (reactive oxygen species; [9]): −0.074
ΔΨm [1, 9]: −0.174
Viability (C2C12 myotubes; [9]): −0.060
MTT [2, 9]: −0.808
cyt c (cytochrome c; [9]): 0.129
mitoOX (mtOXPHOS transcripts; [9]): −0.699

COc1ccccc1-c1cc(=O)c2c(OC)cccc2o1 [5,2′-dimethoxyflavone]
nucOX (nuOXPHOS transcripts; [3]): −0.881
GE-HTS (OXPHOS gene expression; [3]): −0.862
ROS (reactive oxygen species; [3]): 0.645
ΔΨm [1, 3]: 1.002
Viability (C2C12 myotubes; [3]): −0.228
MTT [2, 3]: −0.219
cyt c (cytochrome c; [3]): 1.046
mitoOX (mtOXPHOS transcripts; [3]): −0.607

Oc1c(Cl)cc(Cl)cc1Sc1cc(Cl)cc(Cl)c1O [bithionol]
nucOX (nuOXPHOS transcripts; [7]): −1.261
GE-HTS (OXPHOS gene expression; [7]): −1.531
ROS (reactive oxygen species; [7]): 1.449
ΔΨm [1, 7]: −2.723
Viability (C2C12 myotubes; [7]): −2.247
MTT [2, 7]: 0.593
cyt c (cytochrome c; [7]): −2.613
mitoOX (mtOXPHOS transcripts; [7]): −1.838

CC(=O)O[C@H]1C[C@@H](OC(C)=O)C(C)(C)C2CC(=O)[C@]3(C)C(CC[C@@]4(C)[C@H](C(=O)O)OC(=O)C5OC543)[C@]21C (stereo partly shown) [deacetoxy(7)-7-oxokhivorinic acid]
nucOX (nuOXPHOS transcripts; [3]): −0.937
GE-HTS (OXPHOS gene expression; [3]): −0.919
ROS (reactive oxygen species; [3]): 2.352
ΔΨm [1, 3]: −0.539
Viability (C2C12 myotubes; [3]): −0.174
MTT [2, 3]: −1.282
cyt c (cytochrome c; [3]): 0.816
mitoOX (mtOXPHOS transcripts; [3]): −0.664

COP(=S)(OC)Oc1ccc([N+](=O)[O-])cc1 [methyl parathione]
nucOX (nuOXPHOS transcripts): 0.500
GE-HTS (OXPHOS gene expression): 0.500
ROS (reactive oxygen species): 0.218
ΔΨm [1]: −0.353
Viability (C2C12 myotubes): 1.967
MTT [2]: −0.341
cyt c (cytochrome c): 0.414
mitoOX (mtOXPHOS transcripts): 0.450

NC(=O)N/N=C/c1ccc([N+](=O)[O-])o1 [nitrofural]
nucOX (nuOXPHOS transcripts; [10]): −0.010
GE-HTS (OXPHOS gene expression; [10]): −0.260
ROS (reactive oxygen species; [10]): 0.446
ΔΨm [1, 10]: −0.518
Viability (C2C12 myotubes; [10]): 0.584
MTT [2, 10]: −0.852
cyt c (cytochrome c; [10]): 0.342
mitoOX (mtOXPHOS transcripts; [10]): −0.750

methyl 7-deshydroxypyrogallin-4-carboxylate
nucOX (nuOXPHOS transcripts; [3]): −1.394
GE-HTS (OXPHOS gene expression; [3]): −1.502
ROS (reactive oxygen species; [3]): 0.145
ΔΨm [1, 3]: −1.695
Viability (C2C12 myotubes; [3]): −0.873
MTT [2, 3]: −1.261
cyt c (cytochrome c; [3]): 0.133
mitoOX (mtOXPHOS transcripts; [3]): −1.395

COc1ccc2c(c1)CC[C@@H]1[C@@H]2CC[C@]2(C)[C@@H](O)CC[C@@H]12 [estradiol methyl ether]
nucOX (nuOXPHOS transcripts; [5]): 0.214
GE-HTS (OXPHOS gene expression; [5]): 0.099
ROS (reactive oxygen species; [5]): 0.411
ΔΨm [1, 5]: −0.007
Viability (C2C12 myotubes; [5]): 0.510
MTT [2, 5]: −0.685
cyt c (cytochrome c; [5]): 1.670
mitoOX (mtOXPHOS transcripts; [5]): −0.209

COc1cc2c3cc1Oc1c(OC)c(OC)cc4c1[C@@H](Cc1ccc(O)c(c1)Oc1ccc(cc1)C[C@@H]3N(C)CC2)N(C)CC4 [berbamine]
nucOX (nuOXPHOS transcripts; [5]): −0.166
GE-HTS (OXPHOS gene expression; [5]): −0.345
ROS (reactive oxygen species; [5]): 0.153
ΔΨm [1, 5]: −0.289
Viability (C2C12 myotubes; [5]): −1.126
MTT [2, 5]: −1.021
cyt c (cytochrome c; [5]): 0.445
mitoOX (mtOXPHOS transcripts; [5]): −0.636
